According to publication PMC9551036, “A selective and orally bioavailable VHL-recruiting PROTAC achieves SMARCA2 degradation in vivo” (Nature Communications, 2022):
Where “and” joins values, the source holds several entries; their conditions need not be identical. Identical values can stand only once. Like-named read-outs stand apart in the source and are kept apart here.

Experiments:
[1] = Cell viability assay (CellTiter Glo) in a panel of cell lines; format: cell-based, human; details: for EC50: Homo sapiens; for viability at 1 µM / viability at 0.316 µM / viability at 1.25 µM / viability at 0.313 µM / viability at 0.1 µM: human; for viability at 1 µM: log10 conc -6 mol/l; for viability at 0.316 µM: log10 conc -6.50031 mol/l; for viability at 1.25 µM: log10 conc -5.90309 mol/l; for viability at 0.313 µM: log10 conc -6.50446 mol/l; for viability at 0.1 µM: log10 conc -7 mol/l;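 as to % Viability: percent of DMSO-treated control cells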
Method: (§1) 500–2000 cells were seeded in white, clear bottom 96-well plates (Corning or Perkin Elmer) in 180–200 µl medium per well. The next day, compounds were added using a digital dispenser and a T0 sample was measured for reference. Cells were incubated for 144–192 h, and viability (luminescence) was measured using CellTiter Glo or CellTiter Glo 2.0 (Promega) according to manufacturer’s instructions after equilibrating cells and reagents at room temperature and 10–20 min incubation time while shaking.

[2] = tested on: panel of cell lines (A549, HCC-364, HCC-515, HCC4006, KYSE-30, LU99, LXFA_629L, LXFA_923L, LXFL_529L, LXFL_1121L, MP38, NCI-H23, NCI-H1355, OV-90, SK-MEL-5 …); assay: as above; format: cell-based, human
Method: as §1

Question: Which results are given for `Cc1ncsc1-c1ccc(C(CCC(C)CCN2CCC(c3ccc4c(c3)n(C3CCCC3)c3nc(=O)c5c(Br)cccc5n43)CC2)NC(=O)C2CC(O)CN2C(=O)C(NC(=O)C2(F)CC2)C(C)(C)C)cc1` (centres unmarked) [ACBI2]?
Answer: EC50 ([1]; A549, A549, read-out: LogEC50 (viability) (converted)): 29.3 nM; EC50 ([1]; A549, A549, values derived from curves in Extended Fig 4b, read-out: EC50 mean): 29.3 nM; EC50 ([1]; HCC364, HCC-364, read-out: LogEC50 (viability) (converted)): 70.8 nM; EC50 ([1]; HCC364, HCC-364, values derived from curves in Extended Fig 4b, read-out: EC50 mean): 70.8 nM; EC50 ([1]; HCC515, HCC-515, read-out: LogEC50 (viability) (converted)): 2.11 nM; EC50 ([1]; HCC515, HCC-515, values derived from curves in Extended Fig 4b, read-out: EC50 mean): 2.11 nM; EC50 ([1]; HCC4006, HCC4006, read-out: LogEC50 (viability) (converted)): 191 nM; EC50 ([1]; HCC4006, HCC4006, values derived from curves in Extended Fig 4b, read-out: EC50 mean): 191 nM; EC50 ([1]; LXFA 629L, LXFA_629L, read-out: LogEC50 (viability) (converted)): 16.5 nM; EC50 ([1]; LXFA 629L, LXFA_629L, values derived from curves in Extended Fig 4b, read-out: EC50 mean): 16.5 nM; EC50 ([1]; LXFA_923L, read-out: LogEC50 (viability) (converted)): 4.36 nM; EC50 ([1]; LXFA_923L, values derived from curves in Extended Fig 4b, read-out: EC50 mean): 4.35 nM; EC50 ([1]; LXFL 529L, LXFL_529L, read-out: LogEC50 (viability) (converted)): 0.382 nM; EC50 ([1]; LXFL 529L, LXFL_529L, values derived from curves in Extended Fig 4b, read-out: EC50 mean): 0.382 nM; EC50 ([1]; Lu-99, LU99, read-out: LogEC50 (viability) (converted)): 132 nM; EC50 ([1]; Lu-99, LU99, values derived from curves in Extended Fig 4b, read-out: EC50 mean): 132 nM; EC50 ([1]; MP38, read-out: LogEC50 (viability) (converted)): 8.75 nM; EC50 ([1]; MP38, values derived from curves in Extended Fig 4b, read-out: EC50 mean): 8.75 nM; EC50 ([1]; NCI-H1355, NCI-H1355, read-out: LogEC50 (viability) (converted)): 15.6 nM; EC50 ([1]; NCI-H1355, NCI-H1355, values derived from curves in Extended Fig 4b, read-out: EC50 mean): 15.6 nM; EC50 ([1]; OV-90, OV-90, read-out: LogEC50 (viability) (converted)): 67.5 nM; EC50 ([1]; OV-90, OV-90, values derived from curves in Extended Fig 4b, read-out: EC50 mean): 67.5 nM; EC50 ([1]; SK-MEL-5, SK-MEL-5, read-out: LogEC50 (viability) (converted)): 2.82 nM; EC50 ([1]; SK-MEL-5, SK-MEL-5, values derived from curves in Extended Fig 4b, read-out: EC50 mean): 2.82 nM; viability at 1 µM ([1]; A549 cells, A549): 44%; viability at 0.316 µM ([1]; A549 cells, A549): 43.1%; viability at 1.25 µM ([1]; HCC4006 cells, HCC4006): 42.2%; viability at 0.313 µM ([1]; HCC4006 cells, HCC4006): 53.4%; viability at 1.25 µM ([1]; HCC-364 cells, HCC-364): 14.6%; viability at 0.313 µM ([1]; HCC-364 cells, HCC-364): 20.4%; viability at 1 µM ([1]; HCC-515 cells, HCC-515): 15%; viability at 0.316 µM ([1]; HCC-515 cells, HCC-515): 22.4%; viability at 1.25 µM ([1]; KYSE-30 cells, KYSE-30): 91.1%; viability at 0.313 µM ([1]; KYSE-30 cells, KYSE-30): 92.8%; viability at 0.313 µM ([1]; LU99 cells, LU99): 30.1%; viability at 1 µM ([1]; LXFA 629L cells, LXFA_629L): 14.9%; viability at 0.316 µM ([1]; LXFA 629L cells, LXFA_629L): 24.7%; viability at 1 µM ([1]; LXFA 923L cells, LXFA_923L): 13.6%; viability at 0.316 µM ([1]; LXFA 923L cells, LXFA_923L): 21.4%; viability at 1 µM ([1]; LXFL 529L cells, LXFL_529L): 4.39%; viability at 0.316 µM ([1]; LXFL 529L cells, LXFL_529L): 6.27%; viability at 0.1 µM ([1]; LXFL 529L cells, LXFL_529L): 9.52%; viability at 1 µM ([1]; LXFL 1121L cells, LXFL_1121L): 90.4%; viability at 0.316 µM ([1]; LXFL 1121L cells, LXFL_1121L): 92.1%; viability at 0.1 µM ([1]; LXFL 1121L cells, LXFL_1121L): 89.5%; viability at 1 µM ([1]; MP38 cells, MP38): 1.87%; viability at 0.316 µM ([1]; MP38 cells, MP38): 0.609%; viability at 0.1 µM ([1]; MP38 cells, MP38): 1.6%; viability at 1.25 µM ([1]; NCI-H23 cells, NCI-H23): 75.3%; viability at 0.313 µM ([1]; NCI-H23 cells, NCI-H23): 76.1%; viability at 1.25 µM ([1]; OV-90 cells, OV-90): 35.5%; viability at 0.313 µM ([1]; OV-90 cells, OV-90): 45.5%; viability at 1.25 µM ([1]; SK-MEL-5 cells, SK-MEL-5): 1.81%; viability at 0.313 µM ([1]; SK-MEL-5 cells, SK-MEL-5): 2.34%; viability at 1.25 µM ([1]; TOV-112D cells, TOV-112D): 91.7%; viability at 0.313 µM ([1]; TOV-112D cells, TOV-112D): 103%; HillSlope (viability) ([2]; A549): -0.487; % Viability ([2]; A549, log10 conc -7 mol/l): 47.919% and 42.1211%; % Viability ([2]; A549, log10 conc -7.50031 mol/l): 60.413% and 52.9594%; % Viability ([2]; A549, log10 conc -8 mol/l): 70.4787% and 68.1265%; % Viability ([2]; A549, log10 conc -8.50031 mol/l): 100.959% and 102.653%; HillSlope (viability) ([2]; HCC4006): -2.51; % Viability ([2]; HCC4006, log10 conc -7.10735 mol/l): 106.752% and 106.118%; % Viability ([2]; HCC4006, log10 conc -8.31158 mol/l): 118.541% and 111.324%; HillSlope (viability) ([2]; HCC-364): -2.992; % Viability ([2]; HCC-364, log10 conc -7.10735 mol/l): 39.6895% and 65.8316%; % Viability ([2]; HCC-364, log10 conc -8.31158 mol/l): 101.18% and 100.543%; HillSlope (viability) ([2]; HCC-515): -0.931; % Viability ([2]; HCC-515, log10 conc -7 mol/l): 21.3218% and 22.1794%; % Viability ([2]; HCC-515, log10 conc -7.50031 mol/l): 21.1243% and 26.9825%; % Viability ([2]; HCC-515, log10 conc -8 mol/l): 34.5235% and 34.7052%; % Viability ([2]; HCC-515, log10 conc -8.50031 mol/l): 51.5226% and 47.9218%; HillSlope (viability) ([2]; KYSE-30): -1.122; % Viability ([2]; KYSE-30, log10 conc -7.10735 mol/l): 99.6818% and 96.2107%; % Viability ([2]; KYSE-30, log10 conc -8.31158 mol/l): 107.107% and 103.099%; HillSlope (viability) ([2]; LU99): -1.519; % Viability ([2]; LU99, log10 conc -7.10735 mol/l): 81.59% and 77.7555%; % Viability ([2]; LU99, log10 conc -8.31158 mol/l): 123.387% and 114.143%; HillSlope (viability) ([2]; LXFA_629L): -0.7355; % Viability ([2]; LXFA_629L, log10 conc -7 mol/l): 28.2712% and 27.4037%; % Viability ([2]; LXFA_629L, log10 conc -7.50031 mol/l): 41.2713% and 34.5184%; % Viability ([2]; LXFA_629L, log10 conc -8 mol/l): 57.9035% and 54.0045%; % Viability ([2]; LXFA_629L, log10 conc -8.50031 mol/l): 89.2294% and 82.1746%; HillSlope (viability) ([2]; LXFA_923L): -0.4788; % Viability ([2]; LXFA_923L, log10 conc -7.50031 mol/l): 31.729% and 41.6954%; % Viability ([2]; LXFA_923L, log10 conc -8 mol/l): 41.6215% and 47.8343%; % Viability ([2]; LXFA_923L, log10 conc -8.50031 mol/l): 63.1043% and 68.2132%; HillSlope (viability) ([2]; LXFL_529L): -0.4813; % Viability ([2]; LXFL_529L, log10 conc -7.50031 mol/l): 17.7092% and 18.3663%; % Viability ([2]; LXFL_529L, log10 conc -8 mol/l): 23.2341% and 22.4794%; % Viability ([2]; LXFL_529L, log10 conc -8.50031 mol/l): 25.5623% and 26.9316%; HillSlope (viability) ([2]; LXFL_1121L): -1.483; % Viability ([2]; LXFL_1121L, log10 conc -7.50031 mol/l): 92.1257% and 100.242%; % Viability ([2]; LXFL_1121L, log10 conc -8 mol/l): 96.5968% and 112.339%; % Viability ([2]; LXFL_1121L, log10 conc -8.50031 mol/l): 103.275% and 116.726%; HillSlope (viability) ([2]; MP38): -1.603; % Viability ([2]; MP38, log10 conc -7.50031 mol/l): 10.4737% and 10.5264%; % Viability ([2]; MP38, log10 conc -8 mol/l): 48.5822% and 44.1126%; % Viability ([2]; MP38, log10 conc -8.50031 mol/l): 84.8854% and 80.6261%; HillSlope (viability) ([2]; NCI-H23): -0.9596; % Viability ([2]; NCI-H23, log10 conc -7.10735 mol/l): 77.4555% and 94.2831%; % Viability ([2]; NCI-H23, log10 conc -8.31158 mol/l): 93.614% and 103.354%; HillSlope (viability) ([2]; NCI-H1355): -1.475; % Viability ([2]; NCI-H1355, log10 conc -8.31158 mol/l): 91.2593% and 85.8715%; HillSlope (viability) ([2]; OV-90): -0.9956; % Viability ([2]; OV-90, log10 conc -7.10735 mol/l): 57.2489% and 75.2258%; % Viability ([2]; OV-90, log10 conc -8.31158 mol/l): 97.3183% and 109.838%; HillSlope (viability) ([2]; SK-MEL-5): -1.006; % Viability ([2]; SK-MEL-5, log10 conc -7.10735 mol/l): 3.91% and 3.091%; % Viability ([2]; SK-MEL-5, log10 conc -8.31158 mol/l): 29.6092% and 31.0459%; HillSlope (viability) ([2]; TOV-112D): -1.255; % Viability ([2]; TOV-112D, log10 conc -7.10735 mol/l): 105.246% and 100.431%; % Viability ([2]; TOV-112D, log10 conc -8.31158 mol/l): 103.581% and 98.4682%
